Laboratory results published in patent US4352880A (priority 1979, dated 1982).
Values joined by “and” are separate entries in the source; they are usually repeats but may differ in a detail not shown here. Identical values can stand only once. Like-named read-outs stand apart in the source and are kept apart here.

Key:
physchem [1] = details: ta-1538 agar
physchem [2] = details: minimal medium, phosphate buffer, pH 7
S. typhimurium TA1535 [3] = system: S. typhimurium TA1535
S. typhimurium TA1535 [4] = system: S. typhimurium TA1535; remark: listed apart in the source
physchem [5] = details: agar
S. typhimurium TA1535 [6] = experiment: Homogeneous bioassay with microsomal activation, minimum mutagenic concentration; details: metabolic activation, 90% confidence intervals
[7] = Diffusion bioassay for mutagenicity with microsomal activation (procarcinogens); details: agar plates
S. typhimurium TA1535 [8] = experiment: as above; details: for Cmut (minimal mutagenic concentration): brackets: one standard deviation; for Cmut /co /s: from figure; for Cmut threshold value (mean): diffusion method, metabolic activation, brackets: 90% confidence intervals
[9] = half-lifetime .tau.1/2 from diffusion bioassay

## CC(=O)Nc1ccc2c(c1)Cc1ccccc1-2 [2-AAF, a-acetyl amino fluorene]
Physchem [1]
  half-life: 0.446 h

## CC(=O)OCN(C)N=O [AcDMN, Acetoxydimethylnitrosoamine]
Physchem [2]
  half-life: 30.4 h
S. typhimurium TA1535 [3]
  C mut^hom threshold value: 1.01 ± 1.48
S. typhimurium TA1535 [4]
  Cmut threshold value (mean): 1.7(1.07, 3.53) μg/ml
S. typhimurium TA1535 [4]; agar
  half-lifetime .tau.1/2 from diffusion bioassay: 34.5 h
Physchem [5]; .tau.1/2 Parametrically
  half-life: 34.1 h
Physchem [5]; [9]
  half-life: 19.1 h

## CCOS(C)(=O)=O [EMS, ethyl-methane-sulfonate]
Physchem [2]
  half-life: 13.8 h
S. typhimurium TA1535 [3]
  C mut^hom threshold value: 16.85 ± 10.85
S. typhimurium TA1535 [4]
  Cmut threshold value (mean): 20.3(13.17, 26.97) μg/ml
Physchem [5]; .tau.1/2 (Table 16)
  half-life: 14.5 h

## COc1ccc2nc3cc(Cl)ccc3c(NCCCNCCCl)c2c1 [ICR-191]
TA-1538; Co 10 mg/ml
  rmut (radius of mutagenic zone): 0.73 cm
TA-1538; Co 100 mg/ml
  rmut (radius of mutagenic zone): 1.16 cm
TA-1538; Co 1000 mg/ml
  rmut (radius of mutagenic zone): 1.52 cm
Physchem [1]
  half-life: 2.09 h

## CN(N=O)C(N)=O [MNU, N-Methyl-N-nitrosourea]
Physchem [2]
  half-life: 0.599 h
S. typhimurium TA1535 [3]
  C mut^hom threshold value: 0.116 ± 2.52
S. typhimurium TA1535 [4]
  Cmut threshold value (mean): 0.27(0.13, 0.45) μg/ml
Physchem [5]; [9]
  half-life: 0.628 h

## O=NN1CCOCC1 [NM, N-nitrosomorpholine]
S. typhimurium TA1535 [6]
  C mut^hom threshold value: 0.7 ± 3.6
[7]
  half-life: 6 h
S. typhimurium TA1535 [8]; 0.25 μl/disc, R = 4.25, TA 1535
  rmut (radius of mutagenic zone): 1.31 ± 0.12 cm and 1.31 ± 0.1 cm
S. typhimurium TA1535 [8]; 0.25 μl, co /s 0.29 mg/ml, R = 4.25 cm
  rmut /R: 0.3 ± 0.02
S. typhimurium TA1535 [8]; 0.25 μl, co /s 0.29 mg/ml
  Cmut (minimal mutagenic concentration): 0.64(0.436, 0.785) μg/ml
  Cmut /co /s: 2.2 × 10^-3
S. typhimurium TA1535 [8]; 2.5 μl/disc, R = 4.25, TA 1535
  rmut (radius of mutagenic zone): 2.25 ± 0.12 cm
S. typhimurium TA1535 [8]; 2.5 μl, co /s 0.91 mg/ml, R = 4.25 cm
  rmut /R: 0.52 ± 0.02
S. typhimurium TA1535 [8]; 2.5 μl, co /s 0.91 mg/ml
  Cmut (minimal mutagenic concentration): 0.699(0.465, 0.902) μg/ml
  Cmut /co /s: 2.4 × 10^-4
S. typhimurium TA1535 [8]; 25 μl/disc, R = 4.25, TA 1535
  rmut (radius of mutagenic zone): 3.6 ± 0.12 cm and 3.6 ± 0.3 cm
S. typhimurium TA1535 [8]; 25 μl, co /s 29.1 mg/ml, R = 4.25 cm
  rmut /R: 0.84 ± 0.07
S. typhimurium TA1535 [8]; 25 μl, co /s 29.1 mg/ml
  Cmut (minimal mutagenic concentration): 0.276(0.119, 0.505) μg/ml
  Cmut /co /s: 9.5 × 10^-6
S. typhimurium TA1535 [8]
  Cmut threshold value (mean): 0.54(0.23, 0.80) μg/ml

## O=NN1CCCC1 [NP, nitrosopyrrolidine]
S. typhimurium TA1535 [6]
  C mut^hom threshold value: 0.58 ± 4.8
[7]
  half-life: 5.1 h
S. typhimurium TA1535 [8]; 0.25 μl/disc, R = 4.25 cm, 3 days
  rmut (radius of mutagenic zone): 1.6 ± 0.18 cm
S. typhimurium TA1535 [8]; 0.25 μl, co /s 0.27 mg/ml
  Cmut (minimal mutagenic concentration): 0.233(0.143, 0.344) μg/ml
S. typhimurium TA1535 [8]; 2.5 μl/disc, R = 4.25 cm, 3 days
  rmut (radius of mutagenic zone): 2.5 ± 0.28 cm
S. typhimurium TA1535 [8]; 2.5 μl, co /s 2.71 mg/ml
  Cmut (minimal mutagenic concentration): 0.233(0.125, 0.449) μg/ml
S. typhimurium TA1535 [8]; 10 μl/disc, R = 4.25 cm, 3 days
  rmut (radius of mutagenic zone): 3.43 ± 0.32 cm and 3.4 ± 0.32 cm
S. typhimurium TA1535 [8]; 10 μl, co /s 10.85 mg/ml
  Cmut (minimal mutagenic concentration): 0.097(0.048, 0.212) μg/ml
S. typhimurium TA1535 [8]; 25 μl/disc, R = 4.25 cm, 3 days
  rmut (radius of mutagenic zone): 3.7 ± 0.31 cm
S. typhimurium TA1535 [8]; 25 μl, co /s 27.1 mg/ml
  Cmut (minimal mutagenic concentration): 0.108(0.082, 0.25) μg/ml
S. typhimurium TA1535 [8]
  Cmut threshold value (mean): 0.17(0.10, 0.37) μg/ml
